Data on three compounds can be found in patent US20060122191A1, “N-(indolethyl-)cycloamine compounds” (priority 2002, published 2006).

Structures can show the parent of a compound that is named as a salt. Where two headings read alike, the source gives them in different places.

Data set [1] deals with T1, serotonin reuptake (SSRI) (Rattus norvegicus, UniProt P31652).
T1 construct: from tissue
Put plainly: Serotonin reuptake inhibition (SSRI), receptor binding studies. The data set is classed as biochemical. The text has this: (§1) In-vitro evidence of interaction with the above-mentioned receptors can be provided, for example, as described in the following references: • 5-HT1A: Cossery J. M., Gozlan H., Spampinato U., Perdicakis C., Guillaumet G., Pichat L., Hamon M., 1987. The selective labeling of central 5-HT1A receptor binding sites by [3H]5-methoxy-3-(di-n-propylamino)chroman. Eur. J. Pharmacol. 140,143-55. • 5-HT2A: Klockow M., Greiner H. E., Haase A., Schmitges C.-J., Seyfried C. 1986. Studies on the receptor profile of bisoprolol. Arzneimittelforschung 36,197-200. • SSRI: Wong, D T, Bymaster, F P, Mayle, D A. Reid, L R, Krushinski, J H, Robertson, D W. LY248686, a new inhibitor of serotonin and norepinephrine uptake. Neuropsychopharmacology 8, 23-33, 1993
(§2) As illustrative of two compounds of the formula I, receptor binding constants determined by the test systems described at the outset are indicated below: […]

In the next data set the target is T2, 5-HT1A (Rattus norvegicus, UniProt P19327).
T2 construct: from tissue
T2 sequence (P19327 1-422): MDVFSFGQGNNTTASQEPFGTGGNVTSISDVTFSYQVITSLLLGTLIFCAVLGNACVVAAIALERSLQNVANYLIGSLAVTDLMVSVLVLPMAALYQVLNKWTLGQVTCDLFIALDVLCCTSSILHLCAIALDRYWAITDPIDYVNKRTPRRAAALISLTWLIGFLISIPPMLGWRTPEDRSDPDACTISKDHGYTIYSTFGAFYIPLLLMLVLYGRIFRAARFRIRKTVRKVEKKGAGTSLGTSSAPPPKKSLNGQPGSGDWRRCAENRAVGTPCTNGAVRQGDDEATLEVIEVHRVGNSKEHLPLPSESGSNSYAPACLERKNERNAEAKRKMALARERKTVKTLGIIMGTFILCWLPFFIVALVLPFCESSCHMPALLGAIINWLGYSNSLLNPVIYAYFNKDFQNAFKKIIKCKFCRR
Kind of data set: 5-HT1A receptor binding.
Source text: as §1, §2

Another data set deals with 5-HT2A (UniProt P14842). Kind of data set: 5-HT2A receptor binding.
Source text: as §1, §2

T1 sequence (P31652 whole entry): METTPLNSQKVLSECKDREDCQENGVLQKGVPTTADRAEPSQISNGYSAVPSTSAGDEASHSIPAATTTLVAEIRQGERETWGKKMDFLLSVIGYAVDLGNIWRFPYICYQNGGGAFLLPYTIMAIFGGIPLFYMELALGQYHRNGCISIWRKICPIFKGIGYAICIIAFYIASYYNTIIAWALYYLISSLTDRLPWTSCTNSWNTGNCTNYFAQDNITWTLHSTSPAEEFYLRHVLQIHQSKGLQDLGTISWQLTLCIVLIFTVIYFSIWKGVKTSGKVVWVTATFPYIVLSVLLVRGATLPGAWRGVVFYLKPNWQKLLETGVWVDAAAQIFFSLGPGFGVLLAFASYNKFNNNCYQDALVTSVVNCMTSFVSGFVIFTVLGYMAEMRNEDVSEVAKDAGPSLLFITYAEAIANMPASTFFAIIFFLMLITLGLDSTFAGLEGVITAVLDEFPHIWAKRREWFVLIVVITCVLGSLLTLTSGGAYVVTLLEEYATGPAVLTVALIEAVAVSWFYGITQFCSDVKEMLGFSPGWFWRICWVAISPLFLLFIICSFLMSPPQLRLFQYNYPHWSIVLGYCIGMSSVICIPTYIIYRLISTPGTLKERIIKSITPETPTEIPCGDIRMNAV

By melting point is commonly meant the temperature, or range, at which the solid turns liquid. In turn, `N#Cc1ccc2[nH]cc(CCN3CCN(c4cccc5c4OCCO5)CC3)c2c1` (as salt: hydrochloride) [a), 3-{2-[4-(2,3-Dihydrobenzo-1,4-dioxin-5-yl)piperazin-1-yl]ethyl}-1H-indole-5-carbonitrile] displayed a melting point of 277.5 to 278.5 °C.

On to `N#Cc1ccc2[nH]cc(CCN3CCN(c4cccc5c4OCCO5)CC3)c2c1` [a), 3-{2-[4-(2,3-Dihydrobenzo-1,4-dioxin-5-yl)piperazin-1-yl]ethyl}-1H-indole-5-carbonitrile], for which the Ki was 11 nM in data set [1] (test system per Wong et al. 1993, read-out: receptor binding constant SSRI); 17 nM at 5-HT1A; 11 nM on 5-HT2A (test system per Klockow et al. 1986; read-out: receptor binding constant 5-HT2A).

As for `N#Cc1ccc2[nH]cc(CCN3CCN(c4cccc5nsnc45)CC3)c2c1` [b), 3-[2-(4-Benzo-1,2,5-thiadiazol-4-yl-piperazin-1-yl)ethyl]-1H-indole-5-carbonitrile], the Ki was 4.3 nM in data set [1]; 110 nM on 5-HT1A (test system per Cossery et al. 1987, read-out: receptor binding constant 5-HT1A); 7.3 nM on 5-HT2A (read-out: receptor binding constant 5-HT2A; test system per Klockow et al. 1986).
